Results: patent US12570656B2, “Purine compounds for treating disorders” (MARVEL BIOTECHNOLOGY, priority 2020, dated 2026)
“And” between values parts separate entries of the source, which are not always exact repeats. Equal entries are not always repeated. Where two headings read alike, the source gives them in different places.

What was measured:
[1] = Brain pharmacokinetics and brain/plasma ratio in male CD-1 mice (1 mg/kg i.v.); type: in vivo; conditions: for Brain concentration / Brain/plasma concentration ratio / Kp at 5 min / Kp at 0.25 h / Kp at 0.5 h / Kp at 8 h / concentration at 5 min / concentration at 0.25 h / concentration at 0.5 h / concentration at 1 h / concentration at 2 h / concentration at 4 h / concentration at 6 h / concentration at 8 h / Kp at 1 h / Kp at 2 h / Kp at 4 h / Kp at 6 h: 1 mg/kg bolus i.v.; for Brain/plasma concentration ratio: listed as 1a; for Kp at 5 min / Kp at 0.25 h / Kp at 0.5 h / Kp at 8 h: brain and plasma; for concentration at 5 min / concentration at 0.25 h / concentration at 0.5 h / concentration at 1 h / concentration at 2 h / concentration at 4 h / concentration at 6 h / concentration at 8 h: intravenous
Method: (§1) Male CD-1 mice were given either bolus 1 mg/kg i.v. or 3 mg/kg p.o. of the indicated compounds and plasma or brain concentrations were measured.
(§2) Where: • C0 concentration extrapolated to time zero following an i.v. dose • tmax time at which maximum concentration is observed • Cmax maximum observed concentration • Apparent t1/2 apparent terminal half-life • AUC0-tlast area under the concentration vs time curve from time 0 to the time of the last measurable concentration • AUC0-inf area under the concentration vs time curve from time 0 to infinity • CL systemic clearance • MRT0-inf mean residence time from time zero to infinity • Vss steady-state volume of distribution • F oral bioavailability=(Dose^iv*AUC^po)/(Dose^po*AUC^iv)*100

[2] = Plasma pharmacokinetics in male CD-1 mice (1 mg/kg i.v. or 3 mg/kg p.o.); conditions: CD-1, mouse, in vivo
Method: as §1, §2

ADORA2A = ADORA2A (Homo sapiens, UniProt P29274); assay: GPCR screening, calcium flux (calcium mobilization), antagonist format; type: cell-based
Method: To ascertain whether the compounds are suitable A2aR antagonists, the compounds of formulae I, II, III, and IV were subjected to GPCR screening using A2aR as the target. The screening was done using the GPCR Screening and Profiling Services by Eurofins DiscoverX Corporation.
The compounds of formulae I, II, III, and IV were screened for GPCR activity using A2aR as the target.
Cell lines were expanded from freezer stocks according to standard procedures. Cells were seeded in a total volume of 20 μL into black-walled, clear-bottom, Poly-D-lysine coated 384-well microplates and incubated at 37° C. for the appropriate time prior to testing.
Assays were performed in 1× Dye Loading Buffer consisting of 1× Dye, 1× Additive A and 2.5 mM Probenecid in HBSS/20 mM Hepes. Probenicid was prepared fresh. Cells were loaded with dye prior to testing. Media was aspirated from cells and replaced with 20 μL Dye Loading Buffer. Cells were incubated for 30-60 minutes at 37° C.
For antagonist determination, cells were pre-incubated with sample followed by agonist challenge at the EC80 concentration. Intermediate dilution of sample stocks was performed to generate 3× sample in assay buffer. After dye loading, cells were removed from the incubator and 10 μL 3× sample was added. Cells were incubated for 30 minutes at room temperature in the dark to equilibrate plate temperature. Vehicle concentration was 1%. Compound antagonist activity was measured on a FLIPR Tetra (MDS). Calcium mobilization was monitored for 2 minutes and 10 μL EC80 agonist in HBSS/20 mM Hepes was added to the cells 5 seconds into the assay.
For antagonist and negative allosteric modulation mode assays, percentage inhibition is calculated using the following formula: % Inhibition=100%×(1−(mean RFU of test sample−mean RFU of vehicle control)/(mean RFU of EC80 control−mean RFU of vehicle control)).
When the calcium was released, the fluorescence of the dye was increased and the increase was measured in real-time.
FIGS. 1 to 6 show percent reacted (Y) versus concentration in μM (X). Compounds were tested in antagonist mode with the requested GPCR Biosensor Assay. For the antagonist assay, data was normalized to the maximal and minimal response observed in the presence of EC80 ligand and vehicle.

[3] = male, CD-1, mouse, iv, brain, i.v. 1 mg/kg

ADORA2A, sequence (P29274 whole entry): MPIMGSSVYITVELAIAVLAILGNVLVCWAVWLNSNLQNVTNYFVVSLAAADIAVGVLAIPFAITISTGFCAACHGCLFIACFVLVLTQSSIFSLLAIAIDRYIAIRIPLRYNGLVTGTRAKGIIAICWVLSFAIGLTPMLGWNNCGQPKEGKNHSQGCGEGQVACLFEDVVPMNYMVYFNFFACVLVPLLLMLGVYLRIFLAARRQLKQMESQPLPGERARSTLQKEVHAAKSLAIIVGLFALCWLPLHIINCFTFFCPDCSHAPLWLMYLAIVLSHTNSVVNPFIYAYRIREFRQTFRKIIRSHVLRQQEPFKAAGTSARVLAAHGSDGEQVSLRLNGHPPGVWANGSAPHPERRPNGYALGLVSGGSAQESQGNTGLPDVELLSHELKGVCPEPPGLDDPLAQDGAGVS

In the case of `CCn1c(=O)c2c(nc(/C=C/c3ccc(OC(F)F)c(OC(F)F)c3)n2C)n(CC)c1=O` [Formula I, 8-[(E)-2-[3,4-bis(difluoromethoxy)phenyl]vinyl]-1,3-diethyl-7-methyl-purine-2,6-dione;hydrofluoride], the Brain concentration ([1]; 5 min, individual animals 1-3) is reported as 851 ng/g and 682 ng/g, the Brain/plasma concentration ratio ([1]; 5 min, individual animals 1-3) is reported as 0.867 and 0.751 and the Brain concentration ([1]; 0.25 h, individual animals 1-3) is reported as 426 ng/g and 665 ng/g. The Brain/plasma concentration ratio ([1]; 0.25 h, individual animals 1-3) was 0.789 and 0.795, the Brain concentration ([1]; 0.5 h, individual animals 1-3) was 282 ng/g and 381 ng/g and the Brain/plasma concentration ratio ([1]; 0.5 h, individual animals 1-3) was 0.535 and 0.779. The Brain concentration ([1]; 1 h, individual animals 1-3) was 318 ng/g and 175 ng/g, the Brain/plasma concentration ratio ([1]; 1 h, individual animals 1-3) was 0.763 and 0.550 and the Brain concentration ([1]; 2 h, individual animals 1-3) was 195 ng/g and 185 ng/g. For the same compound, the Brain/plasma concentration ratio ([1]; 2 h, individual animals 1-3) was 0.739 and 0.661, the Brain concentration ([1]; 4 h, individual animals 1-3) was 158 ng/g and 198 ng/g and the Brain/plasma concentration ratio ([1]; 4 h, individual animals 1-3) was 0.745 and 0.783. For the same compound, the Brain concentration ([1]; 6 h, individual animals 1-3) was 138 ng/g and 122 ng/g, the Brain/plasma concentration ratio ([1]; 6 h, individual animals 1-3) was 0.683 and 0.758 and the Brain concentration ([1]; 8 h, individual animals 1-3) was 118 ng/g and 114 ng/g. For the same compound, the Brain/plasma concentration ratio ([1]; 8 h, individual animals 1-3) was 0.771 and 0.809, the AUC0-tlast ([1]; brain, i.v. 1 mg/kg) was 1,447 h*ng/g and the AUC(0-inf) ([1]; brain, i.v. 1 mg/kg) was 2807^a h*ng/g. The Kp at 5 min ([1]; male, CD-1, mouse, iv, 1 mg/kg, 5 min, individual animals 1-3, read-out: Brain/plasma concentration ratio) was 0.757, the Kp at 5 min ([1]; male, CD-1, mouse, iv, 1 mg/kg, 5 min, read-out: Brain/plasma concentration ratio, Mean) was 0.792 and the Kp at 0.25 h ([1]; male, CD-1, mouse, iv, 1 mg/kg, 0.25 h, individual animals 1-3, read-out: Brain/plasma concentration ratio) was 0.635. For the same compound, the Kp at 0.25 h ([1]; male, CD-1, mouse, iv, 1 mg/kg, 0.25 h, read-out: Brain/plasma concentration ratio, Mean) was 0.74, the Kp at 0.5 h ([1]; male, CD-1, mouse, iv, 1 mg/kg, 0.5 h, individual animals 1-3, read-out: Brain/plasma concentration ratio) was 0.731 and the Kp at 0.5 h ([1]; male, CD-1, mouse, iv, 1 mg/kg, 0.5 h, read-out: Brain/plasma concentration ratio, Mean) was 0.682. For the same compound, the Kp at 8 h ([1]; male, CD-1, mouse, iv, 1 mg/kg, 8 h, individual animals 1-3, read-out: Brain/plasma concentration ratio) was 0.902, the Kp at 8 h ([1]; male, CD-1, mouse, iv, 1 mg/kg, 8 h, read-out: Brain/plasma concentration ratio, Mean) was 0.827 and the concentration at 5 min ([1]; male, CD-1, mouse, brain, 1 mg/kg, 5 min, individual animals 1-3, read-out: Brain concentration) was 818 ng/g. It also gave a concentration at 5 min ([1]; male, CD-1, mouse, brain, 1 mg/kg, 5 min, read-out: Brain concentration, Mean) of 784 ng/g, a concentration at 0.25 h ([1]; male, CD-1, mouse, brain, 1 mg/kg, 0.25 h, individual animals 1-3, read-out: Brain concentration) of 373 ng/g and a concentration at 0.25 h ([1]; male, CD-1, mouse, brain, 1 mg/kg, 0.25 h, read-out: Brain concentration, Mean) of 488 ng/g. For the same compound, the concentration at 0.5 h ([1]; male, CD-1, mouse, brain, 1 mg/kg, 0.5 h, individual animals 1-3, read-out: Brain concentration) was 377 ng/g, the concentration at 0.5 h ([1]; male, CD-1, mouse, brain, 1 mg/kg, 0.5 h, read-out: Brain concentration, Mean) was 347 ng/g and the concentration at 1 h ([1]; male, CD-1, mouse, brain, 1 mg/kg, 1 h, individual animals 1-3, read-out: Brain concentration) was 269 ng/g. For the same compound, the concentration at 1 h ([1]; male, CD-1, mouse, brain, 1 mg/kg, 1 h, read-out: Brain concentration, Mean) was 254 ng/g, the concentration at 2 h ([1]; male, CD-1, mouse, brain, 1 mg/kg, 2 h, individual animals 1-3, read-out: Brain concentration) was 159 ng/g and the concentration at 2 h ([1]; male, CD-1, mouse, brain, 1 mg/kg, 2 h, read-out: Brain concentration, Mean) was 180 ng/g. The concentration at 4 h ([1]; male, CD-1, mouse, brain, 1 mg/kg, 4 h, individual animals 1-3, read-out: Brain concentration) was 120 ng/g, the concentration at 4 h ([1]; male, CD-1, mouse, brain, 1 mg/kg, 4 h, read-out: Brain concentration, Mean) was 159 ng/g and the concentration at 6 h ([1]; male, CD-1, mouse, brain, 1 mg/kg, 6 h, individual animals 1-3, read-out: Brain concentration) was 91.2 ng/g. For the same compound, the concentration at 6 h ([1]; male, CD-1, mouse, brain, 1 mg/kg, 6 h, read-out: Brain concentration, Mean) was 117 ng/g, the concentration at 8 h ([1]; male, CD-1, mouse, brain, 1 mg/kg, 8 h, individual animals 1-3, read-out: Brain concentration) was 110 ng/g and the concentration at 8 h ([1]; male, CD-1, mouse, brain, 1 mg/kg, 8 h, read-out: Brain concentration, Mean) was 114 ng/g. The Kp at 1 h ([1]; male, CD-1, mouse, brain/plasma, iv, 1 mg/kg, 1 h, individual animals 1-3, read-out: Brain/plasma concentration ratio) was 0.714, the Kp at 1 h ([1]; male, CD-1, mouse, brain/plasma, iv, 1 mg/kg, 1 h, read-out: Brain/plasma concentration ratio, Mean) was 0.675 and the Kp at 2 h ([1]; male, CD-1, mouse, brain/plasma, iv, 1 mg/kg, 2 h, individual animals 1-3, read-out: Brain/plasma concentration ratio) was 0.572. For the same compound, the Kp at 2 h ([1]; male, CD-1, mouse, brain/plasma, iv, 1 mg/kg, 2 h, read-out: Brain/plasma concentration ratio, Mean) was 0.657, the Kp at 4 h ([1]; male, CD-1, mouse, brain/plasma, iv, 1 mg/kg, 4 h, individual animals 1-3, read-out: Brain/plasma concentration ratio) was 0.8 and the Kp at 4 h ([1]; male, CD-1, mouse, brain/plasma, iv, 1 mg/kg, 4 h, read-out: Brain/plasma concentration ratio, Mean) was 0.776. It also gave a Kp at 6 h ([1]; male, CD-1, mouse, brain/plasma, iv, 1 mg/kg, 6 h, individual animals 1-3, read-out: Brain/plasma concentration ratio) of 0.86, a Kp at 6 h ([1]; male, CD-1, mouse, brain/plasma, iv, 1 mg/kg, 6 h, read-out: Brain/plasma concentration ratio, Mean) of 0.767 and a Kp ([1]; male, CD-1, mouse, brain/plasma, iv, 1 mg/kg, i.v. 1 mg/kg, read-out: Brain/plasma AUC0-tlast ratio) of 0.71. It also gave a Cmax [1, 3] of 784 ng/g, a Tmax [1, 3] of 5 min and a half-life ([1]; male, CD-1, mouse, iv, brain, i.v. 1 mg/kg, read-out: Apparent t1/2 (converted)) of 8.27 h. It also gave an MRT inf ([1]; male, CD-1, mouse, iv, brain, i.v. 1 mg/kg, read-out: MRT0-inf) of 11.2 h, a bioavailability [2] of 76% and an AUC(0-inf) ([2]; iv, 1 mg/kg) of 3240 ng·h/mL. It also gave an AUC(0-t) ([2]; iv, 1 mg/kg) of 2040 ng·h/mL, a C0 ([2]; iv, 1 mg/kg) of 1220 ng/mL and a Cmax ([2]; iv, 1 mg/kg) of 990 ng/mL. It also gave an MRT inf ([2]; iv, 1 mg/kg) of 8.02 h, a Tmax ([2]; iv, 1 mg/kg) of 0.0833 h and a Vd ([2]; iv, 1 mg/kg) of 2.47 L/kg. The clearance ([2]; iv, 1 mg/kg) was 5.13 mL/min/kg, the half-life ([2]; iv, 1 mg/kg) was 6 h and the AUC(0-inf) ([2]; po, 3 mg/kg) was 5090 ng·h/mL. The AUC(0-t) ([2]; po, 3 mg/kg) was 4650 ng·h/mL, the Cmax ([2]; po, 3 mg/kg) was 424 ng/mL and the MRT inf ([2]; po, 3 mg/kg) was 11.1 h. For the same compound, the Tmax ([2]; po, 3 mg/kg) was 4 h, the half-life ([2]; po, 3 mg/kg) was 6.52 h and the “Curve Bottom” value (ADORA2A; Antagonist format) was 1.23. For the same compound, the “Curve Top” value (ADORA2A; Antagonist format) was 99, the Hill (ADORA2A; Antagonist format) was 1.4103 and the IC50 (ADORA2A; Antagonist format, EC80 0.021 μM NECA, read-out: RC50 (IC50)) was 88.5 nM. The Emax (ADORA2A; Antagonist format, read-out: Max Response) was 98.1% and the IC50 (ADORA2A; text to FIGS. 1-4, 6, antagonist mode, read-out: half maximal inhibitory concentration (IC50)) was 88.5 nM and 75.5 nM.
